Data: ChEMBL document CHEMBL1144971, “Azido-containing aryl beta-diketo acid HIV-1 integrase inhibitors” (Bioorg Med Chem Lett, 2003)
pIC50: −log10 of the molar value.

Key:
[1] = biological target: T1, Human immunodeficiency virus type 1 integrase (Human immunodeficiency virus 1, UniProt Q7ZJM1); experiment: (§1) Inhibitory concentration against Recombinant HIV-1 integrase (3'processing)
MT4 [2] = experiment: Antiviral potency was measured in HIV-1IIIb infected MT-4 human T-lymphoid cells; assay type: functional, cell-based
[3] = biological target: T1, Human immunodeficiency virus type 1 integrase; experiment: (§2) Inhibitory concentration against Recombinant HIV-1 integrase (Standard transfer reaction)
[4] = biological target: T1, Human immunodeficiency virus type 1 integrase; experiment: as §2; remark: listed apart in the source
MT4 [5] = experiment: Cytotoxic concentration was measured against MT-4 human T-lymphoid cells; assay type: functional
[6] = biological target: T1, Human immunodeficiency virus type 1 integrase; experiment: as §1; remark: listed apart in the source

T1 sequence (Q7ZJM1 whole entry): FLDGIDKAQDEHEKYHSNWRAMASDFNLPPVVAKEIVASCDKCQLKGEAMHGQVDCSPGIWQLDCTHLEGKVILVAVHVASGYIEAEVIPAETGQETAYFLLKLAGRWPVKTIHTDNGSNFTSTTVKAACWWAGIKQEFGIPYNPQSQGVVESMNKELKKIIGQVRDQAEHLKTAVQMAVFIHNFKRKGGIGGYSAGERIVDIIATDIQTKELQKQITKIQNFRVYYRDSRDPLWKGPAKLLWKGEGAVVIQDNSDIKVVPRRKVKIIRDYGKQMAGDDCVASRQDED

Structure (SMILES)	pIC50 [1]	pIC50 (MT4 [2])	pIC50 [3]	pIC50 [4]	CC50 (MT4 [5])	pIC50 [6]
[N-]=[N+]=NC1CC(N=[N+]=[N-])c2cc(C(=O)CC(=O)C(=O)O)ccc21 (stereo not given)	< 4.00	< 4.60	6.44	–	–	–
[N-]=[N+]=NCc1ccc(C(=O)CC(=O)C(=O)O)cc1CN=[N+]=[N-]	< 4.00	4.84	6.82	6.59	> 50 µM	–
N#CCCc1cccc(C(=O)CC(=O)C(=O)O)c1	< 4.00	< 4.60	5.74	5.82	–	–
O=C(O)C(=O)CC(=O)c1cccc(OCc2ccccc2)c1	4.07	6.22	6.46	–	–	4.00
[N-]=[N+]=NCc1cccc(C(=O)CC(=O)C(=O)O)c1	< 4.00	5.68	5.82	–	> 50 µM	–
[N-]=[N+]=NCc1ccc(C(=O)CC(=O)C(=O)O)cc1	< 4.00	< 4.60	5.15	5.21	–	–
[N-]=[N+]=NCc1cc(CN=[N+]=[N-])cc(C(=O)CC(=O)C(=O)O)c1	< 4.00	5.30	5.70	5.55	> 50 µM	–
COc1ccc(CN=[N+]=[N-])cc1C(=O)CC(=O)C(=O)O	–	4.87	–	–	–	–
CC(C)Oc1ccc(CN=[N+]=[N-])cc1C(=O)CC(=O)C(=O)O	< 4.00	5.23	4.64	4.60	–	–
[N-]=[N+]=NC1CCC(N=[N+]=[N-])c2cc(C(=O)CC(=O)C(=O)O)ccc21 (stereo not given)	4.15	4.81	6.49	–	–	–
O=C(O)C(=O)CC(=O)c1cc(OCc2ccccc2)cc(OCc2ccccc2)c1	< 4.00	5.72	6.32	–	> 50 µM	–
COc1ccc(C(=O)CC(=O)C(=O)O)cc1CN=[N+]=[N-]	< 4.00	< 4.60	5.05	5.07	–	–
